Measurements published in patent US7083932B1, “Nucleic acid molecules encoding peptides having pronociceptive properties” (Euroscreen, s.a., priority 1995, dated 2006).
Counter-ions that a name gives are not always drawn. Ends that are not written are not given here.

What was measured:
[1] = test system: mice; assay: antagonism of nociceptin-induced stimulation of horizontal locomotor activity; format: in vivo
[2] = test system: mice; assay: hole board test; format: in vivo; conditions: 5 mg/kg s.c., tested 15 minutes later; saline 150±8
[3] = test system: CHO(ORL1−) cells; format: cell-based
[4] = molecular target: ORL1 receptor (Homo sapiens, UniProt P41146); assay: cell-based
ORL1 receptor, sequence (P41146 whole entry): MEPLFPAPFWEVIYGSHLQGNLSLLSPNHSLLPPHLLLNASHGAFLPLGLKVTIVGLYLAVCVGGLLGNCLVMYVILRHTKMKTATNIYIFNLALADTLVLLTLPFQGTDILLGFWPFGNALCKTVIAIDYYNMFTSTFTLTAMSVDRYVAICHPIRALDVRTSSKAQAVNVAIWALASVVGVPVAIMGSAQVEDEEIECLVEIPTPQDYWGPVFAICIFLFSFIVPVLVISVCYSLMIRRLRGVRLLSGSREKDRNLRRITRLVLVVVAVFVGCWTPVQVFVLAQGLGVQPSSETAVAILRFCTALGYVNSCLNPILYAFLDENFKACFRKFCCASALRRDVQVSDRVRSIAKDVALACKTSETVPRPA

C=CCN1CC[C@]23c4c5ccc(O)c4O[C@H]2C(=O)CC[C@@]3(O)[C@H]1C5 [Naloxone, Naloxone hydrochloride]
effect on motor-stimulant effect of 100 ng nociceptin ([1]; 0.0–4.5 mg/kg s.c., 10 minutes before i.c.v. nociceptin, first 10 minutes of testing): did not suppress

O=C(CCCN1CCC(O)(c2ccc(Cl)cc2)CC1)c1ccc(F)cc1 [haloperidol]
antagonism of nociceptin stimulation of locomotor activity ([1]; increasing doses of antagonist): antagonized

CN1CC[C@]23c4c5ccc(O)c4O[C@H]2[C@@H](O)C=C[C@H]3[C@H]1C5 [morphin]
Number of explored holes during the 20 minutes period [2]: 24±2

YGGFTGARKSARKLANQ [^1Tyr analogue]
activity on cyclase in wild type cells [3]: totally inactive | IC50 [4]: 1 nM | maximal inhibition of forskolin-induced cAMP accumulation [4]: > 90%
